The values that follow come from patent US20250388567A1, “SELECTIVE G PROTEIN-COUPLED RECEPTOR KINASE 5 INHIBITORS, COMPOSITIONS, AND METHODS OF USE” (Purdue Research Foundation, priority 2022, published 2025).

As a reminder, the IC50 is the concentration that inhibits the measured activity by half. Low readings indicate greater potency in that assay, high ones weaker potency in that assay.

One assay concerns the target bovine GRK2 (Bos taurus (Bovine), UniProt P21146). In words: GRK2 radiometric inhibition assay (tubulin phosphorylation, [γ-32P]-ATP). Type of assay: biochemical. The note with it: 50 nM GRK, 500 nM tubulin, 5 μM ATP. As to the method: (§1) Reactions were quenched at 8 min by addition of 5 μL of 4×SDS gel loading dye to the 10 μL reactions. […] Gels were dried, exposed to a storage phosphor screen overnight, and scanned using a Personal Molecular Imager (Bio-Rad). […] Outliers were eliminated automatically at a 1% Q value. Experiments were performed at least three times.
(§2) Standard control compounds are run during each assay to assess consistency across time, experimenters, and subtle changes in assay conditions that are sometimes required to keep compounds soluble and dispersed (e.g., through addition of DDM or 3% DMSO).

A further assay has as its target human GRK5 (Homo sapiens (Human), UniProt P34947). In words: GRK5 radiometric inhibition assay (tubulin phosphorylation, [γ-32P]-ATP). The format is biochemical. The settings on record: 50 nM GRK, 500 nM tubulin, 5 μM ATP. Here is the method: as §1, §2

bovine GRK2, sequence (P21146 whole entry): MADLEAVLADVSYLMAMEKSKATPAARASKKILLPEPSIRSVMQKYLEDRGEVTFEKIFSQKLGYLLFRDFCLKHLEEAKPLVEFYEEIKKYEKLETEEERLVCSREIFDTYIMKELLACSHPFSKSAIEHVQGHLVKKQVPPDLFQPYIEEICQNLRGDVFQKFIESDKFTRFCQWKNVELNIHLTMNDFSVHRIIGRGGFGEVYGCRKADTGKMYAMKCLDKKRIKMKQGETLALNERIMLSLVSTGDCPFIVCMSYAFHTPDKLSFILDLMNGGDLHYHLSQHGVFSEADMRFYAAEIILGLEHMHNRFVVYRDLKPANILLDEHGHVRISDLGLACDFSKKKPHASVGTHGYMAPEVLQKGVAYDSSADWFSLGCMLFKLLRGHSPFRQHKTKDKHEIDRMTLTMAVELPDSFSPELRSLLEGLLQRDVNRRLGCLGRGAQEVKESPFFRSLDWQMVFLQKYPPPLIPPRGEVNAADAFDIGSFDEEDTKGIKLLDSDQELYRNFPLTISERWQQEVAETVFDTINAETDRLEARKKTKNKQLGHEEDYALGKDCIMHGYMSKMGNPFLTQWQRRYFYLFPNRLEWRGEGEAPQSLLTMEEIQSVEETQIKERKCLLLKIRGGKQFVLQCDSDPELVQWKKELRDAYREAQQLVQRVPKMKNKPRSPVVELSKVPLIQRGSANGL
human GRK5, sequence (P34947 whole entry): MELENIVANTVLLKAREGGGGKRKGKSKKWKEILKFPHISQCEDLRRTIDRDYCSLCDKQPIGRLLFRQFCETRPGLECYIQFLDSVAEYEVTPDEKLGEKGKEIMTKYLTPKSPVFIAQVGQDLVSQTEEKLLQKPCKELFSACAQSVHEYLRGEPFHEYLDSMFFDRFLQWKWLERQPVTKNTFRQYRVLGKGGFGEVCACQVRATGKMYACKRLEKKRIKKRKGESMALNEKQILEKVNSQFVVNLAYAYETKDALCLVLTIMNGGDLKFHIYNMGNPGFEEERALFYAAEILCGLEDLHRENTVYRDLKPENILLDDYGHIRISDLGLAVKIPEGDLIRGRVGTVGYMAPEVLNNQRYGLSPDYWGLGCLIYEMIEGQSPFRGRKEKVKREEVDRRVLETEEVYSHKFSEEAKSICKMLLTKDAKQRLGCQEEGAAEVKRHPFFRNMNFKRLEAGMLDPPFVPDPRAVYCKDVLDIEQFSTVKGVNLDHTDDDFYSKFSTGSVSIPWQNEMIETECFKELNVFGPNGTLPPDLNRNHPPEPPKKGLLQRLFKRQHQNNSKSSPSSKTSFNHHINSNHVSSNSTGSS

Regarding `Cc1[nH]c(/C=C2\C(=O)Nc3ccc(C(=O)N[C@H](C)c4ccccc4)cc32)c(C)c1C(O)C#N` (stereo partly drawn) [Compound 18], the results for the IC50 against bovine GRK2 and against human GRK5 were above 10000 nM and 101 to 999 nM, respectively. For `Cc1[nH]c(/C=C2\C(=O)Nc3ccc(C(=O)N[C@H](C)c4ccccc4)cc32)c(C)c1C(=O)NC(C)c1ccco1` (stereo partly drawn) [Compound 31] the same measures were 1000 to 10000 nM and 1 to 100 nM. Consider `Cc1[nH]c(/C=C2\C(=O)Nc3ccc(C(=O)N[C@H](C)c4ccccc4)cc32)c(C)c1C(=O)N[C@@H]1c2ccccc2C[C@@H]1O` [Compound 5], for which the concentration for half-maximal inhibition (IC50) against bovine GRK2 was above 10000 nM; at human GRK5, 101 to 999 nM. For `Cc1[nH]c(/C=C2\C(=O)Nc3ccc(C(=O)N[C@H](C)c4ccccc4)cc32)c(C)c1C(=O)NCC1CCOC1` (mixture of isomers) [Compound 40] the same measures were 1000 to 10000 nM and 1 to 100 nM. For `Cc1[nH]c(/C=C2\C(=O)Nc3ccc(C(=O)N[C@H]4CCc5ccccc54)cc32)c(C)c1NC(=O)C(O)c1ccco1` (stereo partly drawn) [Compound 12], in that order: above 10000 nM and 1000 to 10000 nM.

Take `Cc1[nH]c(/C=C2\C(=O)Nc3ccc(C(=O)N[C@H](C)c4ccccc4)cc32)c(C)c1C(=O)Nc1nc2ccccc2[nH]1` [Compound 33]: the IC50 lay in the range of 1000 to 10000 nM against bovine GRK2 and 101 to 999 nM against human GRK5. For `Cc1[nH]c(/C=C2\C(=O)Nc3ccc(C(=O)N[C@H](C)c4ccccc4)cc32)c(C)c1C(=O)NC1CCS(=O)(=O)CC1` [Compound 42] the same measures were above 10000 nM and 101 to 999 nM.

With `Cc1[nH]c(/C=C2\C(=O)Nc3ccc(C(=O)N[C@H](C)c4ccccc4)cc32)c(C)c1C(=O)NCC(O)c1ccoc1` (stereo partly drawn) [Compound 32], the IC50 against bovine GRK2 is 1000 to 10000 nM; against human GRK5, 1 to 100 nM.

Turning to `Cc1[nH]c(/C=C2\C(=O)Nc3ccc(C(=O)N[C@H](C)c4ccccc4)cc32)c(C)c1C(=O)NC[C@H]1CCCO1` [Compound 36], the IC50 was above 10000 nM against bovine GRK2 and 1 to 100 nM against human GRK5. For the compound `Cc1[nH]c(/C=C2\C(=O)Nc3ccc(C(=O)N[C@H](C)c4ccc(F)cc4)cc32)c(C)c1C(=O)NCC1CCCO1` (mixture of isomers) [Compound 35], the IC50 at bovine GRK2 was above 10000 nM; on human GRK5, 1 to 100 nM. For `COc1cccc2[nH]c(C(O)C(=O)Nc3c(C)[nH]c(/C=C4\C(=O)Nc5ccc(C(=O)N[C@H](C)c6ccc(F)cc6)cc54)c3C)cc12` (stereo partly drawn) [Compound 4] the same measures were above 10000 nM and 101 to 999 nM. For `Cc1[nH]c(/C=C2\C(=O)Nc3ccc(C(=O)N[C@H](C)c4ccc(F)cc4)cc32)c(C)c1C(=O)N[C@@H]1c2ccccc2C[C@H]1O` [Compound 19], in that order: above 10000 nM and 101 to 999 nM. The compound `Cc1[nH]c(/C=C2\C(=O)Nc3ccc(C(=O)N[C@H](C)c4ccc(F)cc4)cc32)c(C)c1NC(=O)C(O)c1ccccc1` (stereo partly drawn) [Compound 1] had an IC50 on bovine GRK2 above 10000 nM. With `Cc1[nH]c(/C=C2\C(=O)Nc3ccc(C(=O)N[C@H](C)c4ccccc4)cc32)c(C)c1C(=O)NCC1CCCCO1` (stereo partly drawn) [Compound 38], the IC50 against bovine GRK2 was above 10000 nM; on human GRK5, 1 to 100 nM. For `Cc1[nH]c(/C=C2\C(=O)Nc3ccc(C(=O)N[C@H](C)c4ccccc4)cc32)c(C)c1C(=O)N[C@H]1c2ccccc2C[C@@H]1O` [Compound 7] the same measures were above 10000 nM and 101 to 999 nM. For `Cc1[nH]c(/C=C2\C(=O)Nc3ccc(C(=O)N[C@H]4CCc5ccccc54)cc32)c(C)c1NC(=O)C(=O)c1ccco1` [Compound 11], in that order: above 10000 nM and 1000 to 10000 nM. Take `Cc1[nH]c(/C=C2\C(=O)Nc3ccc(C(=O)N[C@H](C)c4ccccc4)cc32)c(C)c1C(=O)NC1CCOCC1` [Compound 43]: the IC50 is above 10000 nM at bovine GRK2 and 1000 to 10000 nM on human GRK5. For `Cc1[nH]c(/C=C2\C(=O)Nc3ccc(C(=O)N[C@H](C)c4ccccc4)cc32)c(C)c1C(=O)NC1c2ccccc2OCC1O` (stereo partly drawn) [Compound 26] the same measures were above 10000 nM and 101 to 999 nM. For `COCO[C@@H]1Cc2ccccc2[C@H]1NC(=O)c1c(C)[nH]c(/C=C2\C(=O)Nc3ccc(C(=O)N[C@H](C)c4ccccc4)cc32)c1C` [Compound 23], in that order: above 10000 nM and above 10000 nM.

On to `Cc1[nH]c(/C=C2\C(=O)Nc3ccc(C(=O)N[C@H](C)c4ccc(F)cc4)cc32)c(C)c1NC(=O)C(O)c1ccoc1` (stereo partly drawn) [Compound 22], for which the IC50 on bovine GRK2 is 1000 to 10000 nM; on human GRK5 it was 1 to 100 nM. As to `Cc1[nH]c(/C=C2\C(=O)Nc3ccc(C(=O)N[C@H](C)c4ccccc4)cc32)c(C)c1C(=O)NC[C@@H]1CCCO1` [Compound 37], the IC50 on bovine GRK2 lay within 1000 to 10000 nM; against human GRK5 it was 1 to 100 nM. For `Cc1[nH]c(/C=C2\C(=O)Nc3ccc(C(=O)N[C@H](C)c4ccccc4)cc32)c(C)c1C(=O)N[C@H]1Cc2ccccc2[C@H]1O` [Compound 34] the same measures were 1000 to 10000 nM and 1 to 100 nM. For `Cc1[nH]c(/C=C2\C(=O)Nc3ccc(C(=O)N[C@H](C)c4ccccc4)cc32)c(C)c1C(=O)NCC1CC(=O)c2ccccc2O1` (stereo partly drawn) [Compound 41], in that order: above 10000 nM and 1 to 100 nM. For `Cc1[nH]c(/C=C2\C(=O)Nc3ccc(C(=O)N[C@H](C)c4ccccc4)cc32)c(C)c1C(=O)N[C@H]1c2ccccc2CC[C@H]1O` [Compound 25], in that order: above 10000 nM and 101 to 999 nM. Consider `Cc1[nH]c(/C=C2\C(=O)Nc3ccc(C(=O)N[C@H](C)c4ccccc4)cc32)c(C)c1C(=O)NCc1ccco1` [Compound 29], for which the IC50 was in the range of 1000 to 10000 nM at bovine GRK2 and 1 to 100 nM against human GRK5. For `Cc1[nH]c(/C=C2\C(=O)Nc3ccc(C(=O)N[C@H](C)c4ccccc4)cc32)c(C)c1C(=O)NCC(O)C1CCOC1` (stereo partly drawn) [Compound 44], in that order: above 10000 nM and 1 to 100 nM. For `Cc1[nH]c(/C=C2\C(=O)Nc3ccc(C(=O)N[C@H](C)c4ccccc4)cc32)c(C)c1C(=O)N[C@@H]1c2ccccc2CC[C@@H]1O` [Compound 24], in that order: above 10000 nM and 101 to 999 nM. For the compound `Cc1[nH]c(/C=C2\C(=O)Nc3ccc(C(=O)N[C@H](C)c4ccc(F)cc4)cc32)c(C)c1NC(=O)c1ccoc1` [Compound 21], at human GRK5, the 50% inhibitory concentration (IC50) was 1 to 100 nM. Turning to `Cc1[nH]c(/C=C2\C(=O)Nc3ccc(C(=O)N[C@@H]4CCc5ccccc54)cc32)c(C)c1NC(=O)C(=O)c1ccco1` [Compound 9], the IC50 against bovine GRK2 and on human GRK5 was above 10000 nM each time. For `Cc1[nH]c(/C=C2\C(=O)Nc3ccc(C(=O)N[C@H](C)c4ccccc4)cc32)c(C)c1C(=O)N[C@H]1CCc2ccccc21` [Compound 17], the 50% inhibitory concentration (IC50) against bovine GRK2 and against human GRK5 was above 10000 nM throughout.

As for `Cc1[nH]c(CC2C(=O)Nc3ccc(C(=O)N[C@H](C)c4ccc(F)cc4)cc32)c(C)c1NC(=O)[C@H](O)c1ccco1` (stereo partly drawn) [Compound 13], the 50% inhibitory concentration (IC50) at bovine GRK2 is above 10000 nM; at human GRK5, 101 to 999 nM. For `Cc1[nH]c(/C=C2\C(=O)Nc3ccc(C(=O)N[C@H](C)c4ccccc4)cc32)c(C)c1C(=O)N[C@@H]1CCc2ccccc21` [Compound 16], in that order: above 10000 nM and 1000 to 10000 nM. For `Cc1[nH]c(/C=C2\C(=O)Nc3ccc(C(=O)N[C@H](C)c4ccccc4)cc32)c(C)c1C(=O)NC1CCOC1` (mixture of isomers) [Compound 39], in that order: 1000 to 10000 nM and 1 to 100 nM. Regarding `Cc1[nH]c(/C=C2\C(=O)Nc3ccc(C(=O)N[C@H](C)c4ccccc4)cc32)c(C)c1C(=O)N[C@@H]1c2ccccc2C[C@H]1O` [Compound 6], the IC50 was above 10000 nM against bovine GRK2 and 101 to 999 nM against human GRK5.

With `Cc1[nH]c(/C=C2\C(=O)Nc3ccc(C(=O)N[C@H](C)c4ccccc4)cc32)c(C)c1C(=O)NCC(O)c1ccco1` (stereo partly drawn) [Compound 27], the results for the IC50 against bovine GRK2 and at human GRK5 were 1000 to 10000 nM and 1 to 100 nM, respectively. For `COc1cccc(C(O)C(=O)Nc2c(C)[nH]c(/C=C3\C(=O)Nc4ccc(C(=O)N[C@H](C)c5ccc(F)cc5)cc43)c2C)c1` (stereo partly drawn) [Compound 28], in that order: above 10000 nM and 101 to 999 nM.

On to `Cc1[nH]c(/C=C2\C(=O)Nc3ccc(C(=O)N[C@H](C)c4ccccc4)cc32)c(C)c1C(=O)NCC1CCCO1` (stereo partly drawn) [Compound 30], for which the IC50 on bovine GRK2 was in the range of 1000 to 10000 nM; at human GRK5 it was 1 to 100 nM. For `Cc1[nH]c(/C=C2\C(=O)Nc3ccc(C(=O)N[C@H](C)c4ccccc4)cc32)c(C)c1C(=O)N[C@H]1C(=O)Cc2ccccc21` [Compound 20], in that order: above 10000 nM and 101 to 999 nM.

As to `Cc1[nH]c(/C=C2\C(=O)Nc3ccc(C(=O)N[C@H](C)c4ccccc4)cc32)c(C)c1C(=O)N[C@H]1c2ccccc2C[C@H]1O` [Compound 8], the IC50 on bovine GRK2 is above 10000 nM; on human GRK5 it was 101 to 999 nM.

`Cc1[nH]c(/C=C2\C(=O)Nc3ccc(C(=O)N[C@@H]4CCc5ccccc54)cc32)c(C)c1NC(=O)C(O)c1ccco1` (stereo partly drawn) [Compound 10]: the IC50 against bovine GRK2 is above 10000 nM; against human GRK5 it was 101 to 999 nM.
